Experimental data taken from publication PMC6254286, “Quantitative Structure − Antiprotozoal Activity Relationships of Sesquiterpene Lactones ^†” (Molecules, 2009).

Test system: Leishmania donovani amastigotes (strain MHOM/ET/67/L82)
Experiment: L. donovani axenic amastigote assay (resazurin)
Assay type: cell-based
Details: Leishmania donovani; axenic amastigotes, pH 5.4, 72 h; mean of two independent measurements; read-out: IC50 L. donovani (Ldon)
Procedure: Leishmania donovani (axenic amastigote assay). […] Serial drug dilutions in duplicates were prepared covering a range from 30 to 0.041 µg/mL. […] The compounds used as positive controls in the various bioassays (see Table 1) were of commercial origin, with the exception of melarsoprol, which was a gift from WHO. Their purity (generally > 95%) was specified by the manufacturers.
In the case of `C=C1C(=O)OC2CC(C)C3C=CC(=O)C3(C)C(OC(=O)CC(C)C)C12` (centres unmarked) [Compound 4], the IC50 is reported as 871 nM. Work on `C=C1C(=O)OC2CC(C)C3C=CC(=O)C3(C)C(OC(C)=O)C12` (centres unmarked) [Compound 2] yielded an IC50 of 446 nM. Compound `C=C1C(=O)OC2CC(C)C3C=CC(=O)C3(C)C(OC(=O)C(C)C)C12` (centres unmarked) [Compound 3] has an IC50 of 837 nM.

Test system: K1 strain of P. falciparum
Experiment: Antiplasmodial [3H]-hypoxanthine incorporation assay
Assay type: cell-based, Plasmodium falciparum
Details: Plasmodium falciparum, K1, read-out: IC50 P. falciparum (Pfc)
Procedure: Plasmodium falciparum. Antiplasmodial activity was determined using the K1 strain of P. falciparum (resistant to chloroquine and pyrimethamine). A modification of the [3H]-hypoxanthine incorporation assay was used. Briefly, infected human red blood cells (final parasitaemia and haematocrit were 0.3% and 1.25%, respectively) in RPMI 1640 medium with 5% Albumax were exposed to serial drug dilutions in microtiter plates. After 48 hours of incubation at 37°C in a reduced oxygen atmosphere, 0.5 mCi 3H-hypoxanthine was added to each well. Cultures were incubated for a further 24 h before they were harvested onto glass-fiber filters and washed with distilled water. The radioactivity was counted using a BetaplateTM liquid scintillation counter (Wallac, Zurich, Switzerland). […] From the sigmoidal inhibition curves IC50 values were calculated. Assays were run in duplicate and repeated once.
Work on `CCN(CC)CCCC(C)Nc1ccnc2cc(Cl)ccc12` (centres unmarked) [chloroquine, reference compound] yielded an IC50 of 248 nM. With `C=C1C(=O)OC2CC(C)C3C=CC(=O)C3(C)C(OC(=O)CC(C)C)C12` (centres unmarked) [Compound 4] the IC50 was 822 nM. For `C=C1C(=O)OC2CC(C)C3C=CC(=O)C3(C)C(OC(C)=O)C12` (centres unmarked) [Compound 2], the IC50 was 329 nM. Work on `C=C1C(=O)OC2CC(C)C3C=CC(=O)C3(C)C(OC(=O)C(C)C)C12` (centres unmarked) [Compound 3] yielded an IC50 of 700 nM.

Test system: T. cruzi Tulahuen strain C2C4
Experiment: In vitro activity against T. cruzi in L-6 host cells (beta-galactosidase/CPRG)
Assay type: cell-based, Trypanosoma cruzi
Details: Trypanosoma cruzi, L6; Tulahuen C2C4 in L-6 cells, 96 h; mean of two independent measurements; read-out: IC50 T. cruzi (Tcr)
Procedure: Trypanosoma cruzi. Rat skeletal myoblasts (L-6 cells) were seeded in 96-well microtiter plates at 2,000 cells/well in 100 µL RPMI 1640 medium with 10% FBS (fetal bovine serum) and 2 mM L-glutamine. After 24 hours the medium was removed and replaced by 100 µL per well containing 5,000 trypomastigote forms of T. cruzi Tulahuen strain C2C4 containing the β-galactosidase (Lac Z) gene. Fortyeight hours later the medium was removed from the wells and replaced by […] fresh medium with or without a serial drug dilution. Seven 3-fold dilutions were used covering a range from […]. Each drug was tested in duplicate. After 96 hours of incubation the plates were inspected under an inverted microscope to assure growth of the controls and sterility. Then the substrate CPRG/ Nonidet (50 µL) was added to all wells. A colour reaction developed within 2-6 hours and could be read photometrically at 540 nm.
`C=C1C(=O)OC2CC(C)C3C=CC(=O)C3(C)C(OC(=O)CC(C)C)C12` (centres unmarked) [Compound 4] showed an IC50 of 2480 nM. With `C=C1C(=O)OC2CC(C)C3C=CC(=O)C3(C)C(OC(C)=O)C12` (centres unmarked) [Compound 2] the IC50 was 538 nM. With `C=C1C(=O)OC2CC(C)C3C=CC(=O)C3(C)C(OC(=O)C(C)C)C12` (centres unmarked) [Compound 3] the IC50 was 1570 nM.

Same assay, conditions: Trypanosoma cruzi, TULAHUEN, L6, 96 h, Tulahuen C2C4 in L-6 cells, 96 h; mean of two independent measurements; read-out: IC50 T. cruzi (Tcr)
With `O=C(Cn1ccnc1[N+](=O)[O-])NCc1ccccc1` [benznidazole, reference compound] the IC50 was 2000 nM. In the case of `C=C1C(=O)OC2CC(C)C3C(OC(C)=O)CC(O)C3(C)C(O)C12` (centres unmarked) [Compound 9], the IC50 is reported as 45800 nM.

Same assay, conditions: Trypanosoma cruzi, TULAHUEN, L6, 96 h, read-out: IC50 T. cruzi (Tcr)
With `C=C1C(=O)O[C@@H]2C[C@@H](C)[C@@H]3C=CC(=O)[C@@]3(C)[C@@H](O)[C@H]12` [Compound 1, helenalin] the IC50 was 695 nM.

Test system: not listed separately
Experiment: Cytotoxicity against L6 cells (Alamar blue)
Details: rat
Procedure: (§1) Trypanosoma brucei rhodesiense and cytotoxicity against L6 cells. Minimum Essential Medium with Earle’s salts (50 µL) supplemented with 0.2 mM 2-mercapto-ethanol, 1 mM Na-pyruvate and 15% heat-inactivated horse serum was added to each well of a 96-well microtiter plate. […] Then 10^4 bloodstream forms of Trypanosoma brucei rhodesiense STIB 900 in 50 µL of medium were added to each well and the plate incubated at 37°C under a 5% CO2 atmosphere for 72 hours. […] The plate was then read in a Spectramax Gemini XS microplate fluorometer (Molecular Devices Corporation, Sunnyvale, CA, USA) using an excitation wavelength of 536 nm and emission wavelength of 588 nm. Fluorescence development was measured and expressed as percentage of the control. Data were transferred into the graphic programme Softmax Pro (Molecular Devices) which calculated IC50 values. Cytotoxicity was assessed using a similar protocol and rat skeletal myoblasts (L6 cells). […] All following steps were according to the T. b. rhodesiense protocol.
For `COc1cc([C@@H]2c3cc4c(cc3[C@H](O)[C@H]3COC(=O)[C@H]23)OCO4)cc(OC)c1OC` [podophyllotoxin, reference compound], the IC50 at 72 h was 12 nM. `C=C1C(=O)O[C@@H]2C[C@@H](C)[C@@H]3C=CC(=O)[C@@]3(C)[C@@H](O)[C@H]12` [Compound 1, helenalin] showed an IC50 at 72 h of 992 nM.

Same assay, conditions: rat, IC50 Cytotoxicity (L6), L6 rat skeletal myoblasts, 72 h; mean of two independent measurements
In the case of `C=C1C(=O)OC2CC(C)C3C=CC(=O)C3(C)C(OC(=O)CC(C)C)C12` (centres unmarked) [Compound 4], the IC50 is reported as 1300 nM. With `C=C1C(=O)OC2CC(C)C3C(OC(C)=O)CC(O)C3(C)C(O)C12` (centres unmarked) [Compound 9] the IC50 was 12300 nM. Work on `C=C1C(=O)OC2CC(C)C3C=CC(=O)C3(C)C(OC(C)=O)C12` (centres unmarked) [Compound 2] yielded an IC50 of 809 nM. `C=C1C(=O)OC2CC(C)C3C=CC(=O)C3(C)C(OC(=O)C(C)C)C12` (centres unmarked) [Compound 3] showed an IC50 of 1030 nM.

Test system: Trypanosoma brucei rhodesiense STIB 900
Experiment: In vitro activity against T. brucei rhodesiense bloodstream forms (Alamar blue)
Assay type: cell-based
Details: Trypanosoma brucei, 72 h, bloodstream forms STIB 900, 72 h; mean of two independent measurements; read-out: IC50 T. brucei rhodes. (Tbr)
Procedure: as §1
For `C=C1C(=O)OC2CC(C)C3C=CC(=O)C3(C)C(OC(=O)CC(C)C)C12` (centres unmarked) [Compound 4], the IC50 was 116 nM. With `C=C1C(=O)OC2CC(C)C3C(OC(C)=O)CC(O)C3(C)C(O)C12` (centres unmarked) [Compound 9] the IC50 was 9280 nM. With `C=C1C(=O)OC2CC(C)C3C=CC(=O)C3(C)C(OC(C)=O)C12` (centres unmarked) [Compound 2] the IC50 was < 100 nM. Compound `C=C1C(=O)OC2CC(C)C3C=CC(=O)C3(C)C(OC(=O)C(C)C)C12` (centres unmarked) [Compound 3] has an IC50 of 105 nM.

Same assay, conditions: Trypanosoma brucei, 72 h, read-out: IC50 T. brucei rhodes. (Tbr), bloodstream forms STIB 900, 72 h; mean of two independent measurements
With `C=C1C(=O)O[C@@H]2C[C@@H](C)[C@@H]3C=CC(=O)[C@@]3(C)[C@@H](O)[C@H]12` [Compound 1, helenalin] the IC50 was < 100 nM. For `Nc1nc(N)nc(Nc2ccc([As]3SCC(CO)S3)cc2)n1` (centres unmarked) [melarsoprol, reference compound], the IC50 was 8 nM.

Same assay, conditions: bloodstream forms STIB 900, 72 h; mean of two independent measurements; read-out: IC50 T. brucei rhodes. (Tbr)
In the case of `C=C1C(=O)OC2CC(C)C3C=CC(=O)C3(C)C(OC(C)=O)C12` (centres unmarked) [Compound 2], the IC50 is reported as 63 nM.

Same assay, conditions: ratio of cytotoxic IC50 (L6) over IC50 against Tbr
In the case of `C=C1C(=O)OC2CC(C)C3C=CC(=O)C3(C)C(OC(C)=O)C12` (centres unmarked) [Compound 2], the “selectivity index (SI) with respect to Tbr” value is reported as 13.

Same assay, conditions: read-out: IC50 T. brucei rhodes. (Tbr); bloodstream forms STIB 900, 72 h; mean of two independent measurements
In the case of `C=C1C(=O)O[C@@H]2C[C@@H](C)[C@@H]3C=CC(=O)[C@@]3(C)[C@@H](O)[C@H]12` [Compound 1, helenalin], the IC50 is reported as 52 nM.

Same assay, conditions: read-out: IC50 T. brucei rhodes. (Tbr); bloodstream forms STIB 900, 72 h; mean of two independent measurements; listed as helenalin
In the case of `C=C1C(=O)O[C@@H]2C[C@@H](C)[C@@H]3C=CC(=O)[C@@]3(C)[C@@H](O)[C@H]12` [Compound 1, helenalin], the IC50 is reported as 50 to 100 nM.
